Read-outs that look alike come from different tables or passages of the source.
Legend:
JAK2 kinase domain (JH1) = JAK2 kinase domain (JH1) (Homo sapiens (Human), UniProt O60674); test: JAK2 Radioactive Kinase Assay; type: biochemical; details: read-out: JAK2 JH1% Inhibition @ 10 μM
Method in brief: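 Each kinase domain is incubated with test compound at 10 μM. Activity is then measured radiometrically and expressed as percent inhibition relative to uninhibited enzyme.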

[1] = target: JAK2/JAK2 homdimeric complex (Homo sapiens (Human), UniProt O60674); test: GM-CSF Induced pSTAT5 in Human PBMC; type: cell-based; details: GM-CSF 5 ng/mL for 20 minutes, pSTAT5 by MSD, read-out: PBMC_GMCSF_pSTAT5 IC50
Sequence of JAK2/JAK2 homdimeric complex (O60674 whole entry): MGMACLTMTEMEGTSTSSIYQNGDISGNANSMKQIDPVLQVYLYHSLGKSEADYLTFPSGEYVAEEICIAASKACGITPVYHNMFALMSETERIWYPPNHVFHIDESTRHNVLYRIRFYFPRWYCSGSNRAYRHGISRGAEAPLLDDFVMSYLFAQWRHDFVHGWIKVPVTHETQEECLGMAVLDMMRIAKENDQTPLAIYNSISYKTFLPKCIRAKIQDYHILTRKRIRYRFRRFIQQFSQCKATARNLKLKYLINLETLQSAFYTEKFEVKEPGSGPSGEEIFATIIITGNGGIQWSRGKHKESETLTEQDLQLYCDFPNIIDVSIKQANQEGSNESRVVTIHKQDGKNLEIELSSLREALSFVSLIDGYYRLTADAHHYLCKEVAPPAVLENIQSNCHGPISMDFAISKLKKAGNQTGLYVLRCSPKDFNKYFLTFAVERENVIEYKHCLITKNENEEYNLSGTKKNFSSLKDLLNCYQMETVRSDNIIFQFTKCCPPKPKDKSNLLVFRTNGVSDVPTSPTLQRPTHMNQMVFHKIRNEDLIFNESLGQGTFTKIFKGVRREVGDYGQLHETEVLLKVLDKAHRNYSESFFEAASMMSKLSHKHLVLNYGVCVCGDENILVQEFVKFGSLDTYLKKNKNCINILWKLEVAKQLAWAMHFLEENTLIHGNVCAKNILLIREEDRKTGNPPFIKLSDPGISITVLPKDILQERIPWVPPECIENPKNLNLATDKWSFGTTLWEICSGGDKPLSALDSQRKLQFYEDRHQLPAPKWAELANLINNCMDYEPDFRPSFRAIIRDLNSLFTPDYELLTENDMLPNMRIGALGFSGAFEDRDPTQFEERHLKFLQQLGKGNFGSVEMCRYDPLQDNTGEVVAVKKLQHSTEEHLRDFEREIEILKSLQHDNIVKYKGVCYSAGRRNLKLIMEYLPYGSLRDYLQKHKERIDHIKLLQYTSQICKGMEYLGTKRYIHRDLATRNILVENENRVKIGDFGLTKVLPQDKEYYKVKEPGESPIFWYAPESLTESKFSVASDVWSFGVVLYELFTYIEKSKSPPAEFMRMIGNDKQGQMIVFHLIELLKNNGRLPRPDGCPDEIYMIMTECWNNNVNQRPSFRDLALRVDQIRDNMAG
Sequence of JAK2/JAK2 homdimeric complex (P32927 17-897 partner): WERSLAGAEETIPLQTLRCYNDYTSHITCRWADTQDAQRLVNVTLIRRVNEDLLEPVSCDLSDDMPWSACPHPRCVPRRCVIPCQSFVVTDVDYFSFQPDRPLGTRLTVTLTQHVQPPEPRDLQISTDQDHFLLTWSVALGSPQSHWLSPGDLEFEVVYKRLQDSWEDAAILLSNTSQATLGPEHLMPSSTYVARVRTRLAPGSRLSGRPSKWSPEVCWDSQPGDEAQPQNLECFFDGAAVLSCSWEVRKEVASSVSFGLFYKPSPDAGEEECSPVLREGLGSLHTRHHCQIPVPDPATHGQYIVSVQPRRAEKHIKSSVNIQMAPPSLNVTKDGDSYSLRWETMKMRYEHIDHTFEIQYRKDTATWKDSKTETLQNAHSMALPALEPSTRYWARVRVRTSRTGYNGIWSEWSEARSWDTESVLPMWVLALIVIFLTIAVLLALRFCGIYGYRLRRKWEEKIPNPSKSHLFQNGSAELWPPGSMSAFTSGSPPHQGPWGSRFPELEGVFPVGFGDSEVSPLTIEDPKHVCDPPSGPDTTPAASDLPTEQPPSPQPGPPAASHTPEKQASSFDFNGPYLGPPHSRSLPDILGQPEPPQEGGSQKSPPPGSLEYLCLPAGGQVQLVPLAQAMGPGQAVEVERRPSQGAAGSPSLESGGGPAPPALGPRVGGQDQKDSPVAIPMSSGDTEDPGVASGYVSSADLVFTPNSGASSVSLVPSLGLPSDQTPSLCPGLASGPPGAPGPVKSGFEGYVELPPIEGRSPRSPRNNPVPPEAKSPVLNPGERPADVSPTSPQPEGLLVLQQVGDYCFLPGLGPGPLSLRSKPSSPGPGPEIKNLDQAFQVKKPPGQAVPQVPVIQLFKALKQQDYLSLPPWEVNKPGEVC

Sequence of JAK2 kinase domain (JH1) (O60674 849-1124): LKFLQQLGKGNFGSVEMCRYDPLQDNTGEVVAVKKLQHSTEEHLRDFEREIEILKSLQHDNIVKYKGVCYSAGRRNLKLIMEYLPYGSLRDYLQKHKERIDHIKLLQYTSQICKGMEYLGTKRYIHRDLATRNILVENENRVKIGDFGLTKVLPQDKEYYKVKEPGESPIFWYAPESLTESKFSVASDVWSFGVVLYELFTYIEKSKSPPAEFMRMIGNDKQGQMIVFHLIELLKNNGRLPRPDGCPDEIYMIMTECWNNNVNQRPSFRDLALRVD

Row | Structure (SMILES) | inhibition at 10 µM (JAK2 kinase domain (JH1); 10 μM compound, 10 μM ATP) [%] | IC50 [1] [µM] | inhibition at 10 µM (JAK2 kinase domain (JH1)) [%]
1 | CNc1cc(Nc2cccn([C@@H]3CCCOC3)c2=O)nc2c(C(=O)NC3CCC3OC)cnn12 (mixture of isomers) [I-814, N-(-2-methoxycyclobutyl)-7-(methylamino)-5-((2-oxo-1-((R)-tetrahydro-2H-pyran-3-yl)-1,2-dihydropyridin-3-yl)amino)pyrazolo[1,5-a]pyrimidine-3-carboxamide] | < 50 | > 50 | 
2 | CNc1cc(Nc2cc(C)cc(C)c2)nc2c(C(=O)NC3CC3)cnn12 [I-1, N-cyclopropyl-5-((3,5-dimethylphenyl)amino)-7-(methylamino)pyrazolo[1,5-a]pyrimidine-3-carboxamide] |  | > 50 | 
3 | CNc1cc(Nc2cccnc2OC)nc2c(C(=O)NC3CC3)cnn12 [I-8] |  | > 50 | 
4 | CNc1cc(Nc2cccn(-c3ccc(F)cc3)c2=O)nc2c(C(=O)NC3CC3)cnn12 [I-107, N-cyclopropyl-5-((1-(4-fluorophenyl)-2-oo-1,2-dihydropyridin-3-yl)amino)-7-(methylamino)pyrazolo[1,5-a]pyrimidine-3-carboxamide] |  | > 2.5 | 
5 | CNc1cc(Nc2cccn(-c3ncccc3F)c2=O)nc2c(C(=O)NC3CC3)cnn12 [I-143] |  | > 50 | 
6 | [2H]C([2H])([2H])Oc1ncccc1Nc1cc(NC)n2ncc(C(=O)NC3CC3)c2n1 [I-175, N-cyclopropyl-5-((2-(methoxy-d3)pyridin-3-yl)amino)-7-(methylamino) pyrazolo[1,5-a]pyrimidine-3-carboxamide] |  | > 12.5 | 
7 | CNc1cc(Nc2cccnc2OC)nc2c(C(=O)NOC(C)(C)C)cnn12 [I-612, N-(tert-butoxy)-5-((2-methoxypyridin-3-yl)amino)-7-(methylamino) pyrazolo[1,5-a]pyrimidine-3-carboxamide] |  | > 50 | < 50
8 | CCONC(=O)c1cnn2c(NC)cc(Nc3cccn(-c4ncccc4F)c3=O)nc12 [I-798, N-ethoxy-5-((3′-fluoro-2-oxo-2H-[1,2′-bipyridin]-3-yl)amino)-7-(methylamino) pyrazolo[1,5-a]pyrimidine-3-carboxamide] |  | > 50 | < 50
9 | CNc1cc(Nc2cccn([C@H]3CCCOC3)c2=O)nc2c(C(=O)N[C@@H]3CC[C@H]3OC)cnn12 [I-815] | < 50 | > 12.5 | 
10 | CNc1cc(Nc2cccn(-c3ccc(F)cn3)c2=O)nc2c(C(=O)N[C@@H]3CC[C@H]3OC)cnn12 [I-817] |  | > 2.5 | 
11 | CNc1cc(Nc2cccn(-c3cccnc3)c2=O)nc2c(C(=O)N[C@H]3CC[C@@H]3OC)cnn12 [I-864] |  | > 50 | 
12 | CNc1cc(Nc2cccn([C@H]3CCCOC3)c2=O)nc2c(C(=O)N[C@H]3CC[C@@H]3OC)cnn12 [I-877] | < 50 | > 50 | 

Further lines, with some results ahead:

Row | inhibition at 10 µM (JAK2 kinase domain (JH1); 10 μM compound, 10 μM ATP) [%] | IC50 [1] [µM] | Structure (SMILES) | inhibition at 10 µM (JAK2 kinase domain (JH1)) [%]
13 |  | > 12.5 | CNc1cc(Nc2cccn(-c3nc(C)co3)c2=O)nc2c(C(=O)N[C@H]3CC[C@@H]3OC)cnn12 [I-890] | 
14 |  | > 50 | CNc1cc(Nc2cccn(-c3cnc(C)o3)c2=O)nc2c(C(=O)N[C@@H]3CC[C@H]3OC)cnn12 [I-895] | 
15 |  | > 50 | CNc1cc(Nc2cccn(C(C)C)c2=O)nc2c(C(=O)N[C@@H]3CC[C@H]3OC)cnn12 [I-917] | 
16 |  | > 2.5 | CNc1cc(Nc2cccn(-c3ccc(F)cn3)c2=O)nc2c(C(=O)N[C@H]3CC[C@@H]3OC)cnn12 [I-926] | 
17 |  | > 50 | CNc1cc(Nc2cccn(-c3nc(C)co3)c2=O)nc2c(C(=O)N[C@H]3CC[C@@H]3OC)cnn12 [I-975] | 
18 |  | > 50 | CNc1cc(Nc2cccn(C(C)C)c2=O)nc2c(C(=O)N[C@H]3CC[C@@H]3OC)cnn12 [I-980] | 
19 |  | > 50 | CNc1cc(Nc2cccn(C3CCOCC3)c2=O)nc2c(C(=O)N[C@H]3CC[C@@H]3OC)cnn12 [I-1014] | 
20 |  | > 50 | CNc1cc(Nc2cccn([C@H]3CC[C@H](OC)CC3)c2=O)nc2c(C(=O)N[C@H]3CC[C@@H]3OC)cnn12 [I-1062] | 
21 |  | > 50 | CNc1cc(Nc2cccn([C@H]3CC[C@H](OC)CC3)c2=O)nc2c(C(=O)N[C@@H]3CC[C@H]3OC)cnn12 [I-1378] | 
22 |  | > 50 | CNc1cc(Nc2cccn(-c3ncco3)c2=O)nc2c(C(=O)N[C@@H]3CC[C@H]3OC)cnn12 [I-1398] | 
